Experiments:
Venturia inaegualis = assay: In vivo fungicidal activity on host plants, Apple Scab (AS); conditions: 400 ppm; sprayed on host plants before inoculation
[1] = system: Erysiphe graminis f. sp. tritici; assay: In vivo fungicidal activity on host plants, Wheat Powdery Mildew (WPM); conditions: 400 ppm; sprayed on host plants before inoculation
[2] = system: Puccinia recondita f. sp. tritici; assay: In vivo fungicidal activity on host plants, Wheat Leaf Rust (WLR); conditions: 400 ppm; sprayed on host plants before inoculation
Cercospora beticola = assay: In vivo fungicidal activity on host plants, Sugar Beet Cercospora (SBC); conditions: 400 ppm; sprayed on host plants before inoculation; note: ranges in brackets are in %
Rhizoctonia solani = assay: In vitro fungicidal activity, growth inhibition of ground fungal mycelia (RHIZSO); type: cell-based; conditions: 3-4 days at 21° C., averaged when more than one test, read-out: Growth inhibition rating, RHIZSO
Method: (§1) Test compounds are dissolved or suspended in acetone and dispersed into cell well plates containing a suspension of ground fungal mycelia in a nutrient broth. Assay plates are incubated for 3-4 days at 21° C. Growth inhibition is measured visually and is rated using the following scale:
(§2) Assay fungi include the plant pathogens, Pythium ultimum (Pythul); Rhizoctonia solani (Rhizso); Fusarium oxysporum f. sp. cucumerinum (Fusoxc); and Pseudocercosporella herpotrichoides (Psdche).
(§3) When more than one test is run, the data are averaged.

Botrytis cinerea = assay: In vivo fungicidal activity on host plants, Pepper Botrytis (PB); conditions: 400 ppm; sprayed on host plants before inoculation
Pythium ultimum = assay: In vitro fungicidal activity, growth inhibition of ground fungal mycelia (PYTHUL); type: cell-based; conditions: Globisporangium ultimum, 3-4 days at 21° C., averaged when more than one test, read-out: Growth inhibition rating, PYTHUL (converted)
Method: as §1, §2, §3

Pyricularia oryzae = type: in vivo; conditions: 400 ppm; sprayed on host plants before inoculation
[3] = system: Pseudocercosporella herpotrichoides; assay: In vitro fungicidal activity, growth inhibition of ground fungal mycelia (PSDCHE); type: cell-based; conditions: Oculimacula yallundae, 3-4 days at 21° C., averaged when more than one test, read-out: Growth inhibition rating, PSDCHE (converted)
Method: as §1, §2, §3

Plasmopara viticola = assay: In vivo fungicidal activity on host plants, Grape Downy Mildew (GDM); conditions: 400 ppm; sprayed on host plants before inoculation
[4] = system: Fusarium oxysporum f. sp. cucumerinum; assay: In vitro fungicidal activity, growth inhibition of ground fungal mycelia (FUSOXC); type: cell-based; conditions: 25 ppm, 3-4 days at 21° C., averaged when more than one test, read-out: Growth inhibition rating, FUSOXC
Method: as §1, §2, §3

Row | SMILES | Disease control rating, AS (Venturia inaegualis) | Disease control rating, WPM [1] | Disease control rating, WLR [2] | Disease control rating, SBC (Cercospora beticola) | inhibition at 25 ppm (Rhizoctonia solani) | Disease control rating, PB (Botrytis cinerea) | inhibition at 25 ppm (Pythium ultimum) | Disease control rating, RB (Pyricularia oryzae) | inhibition at 25 ppm [3] | Disease control rating, GDM (Plasmopara viticola) | inhibition at 25 ppm [4]
1 | N#Cc1c(-c2oc3ccccc3c2Cl)[nH]c(Cl)c1Cl [Compound 1, 4,5-Dichloro-2-(3-chloro-2-benzofuranyl)pyrrole-3-carbonitrile] | 0 (0) | 0 (0) | 2 (15-29) | 0 (0) | 1 to 29% | 2 (15-29) | 1 to 29% | 4 (45-59) | 1 to 29% |  | 
2 | N#Cc1cc(-c2ccc(Cl)s2)[nH]c1Cl [Compound 6, 2-Chloro-5-(5-chloro-2-thienyl)pyrrole-3-carbonitrile] | 9 (100) | 0 (0) | 6 (75-89) | 6 (75-89) | 60 to 89% | 0 (0) |  | 0 (0) | 60 to 89% | 7 (90-95) | 
3 | N#Cc1c(Cl)[nH]c(-c2ccc(Cl)s2)c1Br [Compound 7, 4-Bromo-2-chloro-5-(5-chloro-2-thienyl)pyrrole-3-carbonitrile] | 8 (96-99) | 0 (0) | 7 (90-95) | 0 (0) | 60 to 89% | 0 (0) |  | 0 (0) |  | 0 (0) | 0%
4 | FC(F)(F)c1[nH]c(-c2ccc(Cl)cc2)cc1-c1csc(Br)c1 [Compound 9, 3-(5-Bromo-3-thienyl)-5-(p-chlorophenyl)-2-(trifluoromethyl)pyrrole] | 0 (0) | 0 (0) | 0 (0) | 0 (0) | 60 to 89% | 0 (0) | 0% | 0 (0) | 0% | 6 (75-89) | 0%
5 | FC(F)(F)c1[nH]c(-c2ccc(Cl)cc2)cc1-c1ccco1 [Compound 4, 5-(p-Chlorophenyl)-3-(2-furyl)-2-(trifluoromethyl)pyrrole] | 2 (15-29) | 0 (0) | 6 (75-89) | 0 (0) |  | 0 (0) | 60 to 89% | 1 (1-14) | 100% | 8 (96-99) | 

— US5480902A, “Thienylpyrrole fungicidal agents” (American Cyanamid Company, priority 1993, dated 1996)
